Results as given in article PMC12858405, “Ideal efficacy photoswitching for chromocontrol of TRPC4/5 channel functions in live tissues” (Nature Chemical Biology, 2026).

Key:
[1] = biological target: T1, heteromeric TRPC5:TRPC1 (Homo sapiens, UniProt Q9UL62); test: Whole-cell recordings, HEK293 co-expressing TRPC5 and TRPC1; format: cell-based; conditions: 10 nM
T1 construct: expressed in transfected cells; host or cells: HEK293, transiently transfected
Excerpt: Müller, Niemeyer, et al., Schaefer & Thorn-Seshold 2025: Ideal Efficacy Photoswitching of TRPC4/5 in Tissue 3.3 Activation of heteromeric TRPC4:TRPC1 and TRPC5:TRPC1
Supplementary Figure 15: Photoswitching of ionic currents through heteromeric TRPC4:TRPC1 and TRPC5:TRPC1 channel complexes. Whole cell recordings from HEK293 cells that were transiently transfected to express the indicated TRPC isoforms were obtained in the whole cell mode with a voltage and photoswitching paradigm as illustrated in (A). (B-D) Superimposed recordings of 20 consecutive sweeps are shown for cells that ony express TRPC4 or TRPC5 (left), and for cells that co-express the respective TRPC channel along with TRPC1 (right). Note the characteristic change of the current-voltage relationship with smaller inward currents and stronger outward rectification in cells that co-express TRPC1. […]
or 10 nM (all other panels). The data shown are representative for 4-12 patched cells, each.
Currents through heteromeric complexes that are composed of TRPC4:TRPC1 or TRPC5:TRPC1 subunits can be unequivocally recognized on the basis of their unique biophysical properties with smaller unitary and global inward current amplitudes and a marked outward rectification.44 We show […]
also the heteromeric complexes TRPC5:TRPC1 and TRPC4:TRPC1 that are formed upon co-expression with TRPC1 (Supplementary Fig. 15). […]

[2] = biological target: T2, TRPC4 (Mus musculus, UniProt Q9QUQ5); test: Whole-cell patch clamp with monochromated photoswitching, TRPC4-expressing HEK293 cells; format: cell-based; conditions: 10 nM, Vh −80 mV, action spectrum 330-505 nm
T2 construct: expressed in transfected cells; host or cells: HEK293
T2 sequence (Q9QUQ5 1-890 isoform Q9QUQ5-2): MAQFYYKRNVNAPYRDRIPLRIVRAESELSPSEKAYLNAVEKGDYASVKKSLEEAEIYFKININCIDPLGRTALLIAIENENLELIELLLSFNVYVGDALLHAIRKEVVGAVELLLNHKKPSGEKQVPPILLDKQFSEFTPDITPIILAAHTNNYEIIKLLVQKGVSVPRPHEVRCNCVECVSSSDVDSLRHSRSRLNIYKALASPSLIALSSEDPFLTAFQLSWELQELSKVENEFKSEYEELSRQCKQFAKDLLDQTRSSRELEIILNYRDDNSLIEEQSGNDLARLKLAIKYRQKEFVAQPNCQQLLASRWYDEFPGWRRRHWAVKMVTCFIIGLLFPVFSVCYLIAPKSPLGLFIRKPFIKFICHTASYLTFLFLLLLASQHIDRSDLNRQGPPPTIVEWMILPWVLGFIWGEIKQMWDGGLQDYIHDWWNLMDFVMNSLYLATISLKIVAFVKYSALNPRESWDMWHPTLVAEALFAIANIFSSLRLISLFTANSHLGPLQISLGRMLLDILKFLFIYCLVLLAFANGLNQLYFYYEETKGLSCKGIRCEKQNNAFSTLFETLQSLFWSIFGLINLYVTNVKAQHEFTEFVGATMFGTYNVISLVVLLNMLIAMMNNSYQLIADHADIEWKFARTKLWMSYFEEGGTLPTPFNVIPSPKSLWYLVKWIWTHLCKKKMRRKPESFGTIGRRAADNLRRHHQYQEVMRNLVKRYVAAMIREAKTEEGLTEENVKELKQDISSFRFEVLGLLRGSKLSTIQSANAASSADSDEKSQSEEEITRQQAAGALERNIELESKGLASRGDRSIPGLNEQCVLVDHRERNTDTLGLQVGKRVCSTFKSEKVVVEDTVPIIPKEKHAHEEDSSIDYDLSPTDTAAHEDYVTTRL
Excerpt: We next performed electrophysiological patch clamp experiments to characterize the action and specificity of channel modulation in more detail. […] Secondly, electrophysiology readouts linearly and temporally resolve ionic currents through the activated channels, unlike the delayed and attenuated fluorometric Ca^2+ influx analyses in FLIPR. Thirdly, the electrophysiology setup can use narrow-bandwidth monochromated light at any wavelength.
The repeatability of on–off photocycling allowed us to extract action spectra for both (1) photoactivation (Fig. 2d,e) and (2) photodeactivation (Fig. 2f,g) in situ in live cells.
The advantage of the ephys setup is that freely chosen monochromated wavelengths can be used for photoswitching, while in parallel there is no optical imaging light to counteract these optimal wavelengths: and this allows for optimising the photoswitchability.
repeatability of on/off photocycling allowed us to extract action spectra for both (1) photoactivation (Fig. 2d,e) and (2) photodeactivation (Fig. 2f,g) in situ in live cells.
physiological whole-cell recordings of TRPC4 currents in voltage clamp mode (a,b,d-g: Vh = -80 mV; c: Vh scan)
return to baseline currents throughout the applied voltage range. d-g, Spectral scans to extract the wavelength […]

[3] = tested on: mouse ileal or jejuneal segments; test: Myographic isometric contractility of intestinal segments during photoswitching
Excerpt: Basal tension was then restored under 447-nm light and 365/447-nm cycling could be repeated many times (Fig. 6e). […]
7 Spontaneous motility and isometric contractility (Fig. 6)
After sacrificing mice in accordance to the European (Council Directive 2010/63/EU) and German guidelines for the welfare of experimental animals, the abdomen was opened, and intestinal loops were mobilised. Ileal segments were obtained starting 10 mm from the ileocoecal junction. Ileal segments with a length of 3 mm for myography experiments or with a length of 8-12 mm for observation of spontaneous movement were cut out and flushed with carbogen-equilibrated KBRS.
The adventitial layer was carefully peeled off, using a pair of forceps. The remaining intestinal segments, comprising mucosal, submucosal and muscular layers were placed in carbogen-saturated KBRS and immediately used for the experiments. Throughout these experiments, "wild-type" mice have the same genetic background as the knockout mice. For myography experiments, intestinal segments were prepared from mice at the age of 4-7 months. Wild-type control mice were matched in age to the respective knock-out animals.
Mice were housed in groups of two to three animals under the approved standard conditions including a 12 h light-dark-regime and access to food and water ad libitum (see above). Strains for testing intestinal contractility were C57BL6/N mice (from Charles River) and homozygous TRPC5 or TRPC4 single knockout mice,80 both back-crossed on the C57BL6/N background for at least five generations. All mice were of male sex. […]
Myographic isometric contractility: The contractile forces exerted by the circular layer of intestinal segments were quantitatively assessed by measurement in a 4-channel calibrated multi myograph device (DMT 620M, Danish Myo Technology, Hinnerup, Denmark), with digital data acquisition controlled by Labchart software (Version v8; ADINSTRUMENTS). Heated (37°C) bath chambers were filled with carbogen-equilibrated KBRS, and typically 3-mm ileal segments were manoeuvred over custom-made u-shaped hooks that prevented the mucosal layer from prolapsing on the edges. A pre-tension of typically 1.5-2 mN/mm was applied, and ileal segments were allowed […]
solvent (0.5% DMSO). After renewing the pre-tension, the recording of isometric contractions was started, while applying alternating illuminations typically at 365 nm and 447 nm, or else at 385 nm and 470 nm, (typically 10 s exposure each) over typically 9-11 cycles, with no additional illumination […]
segments (N/m) (Fig. 6d-h, Supplementary Fig. 23c-g).
7.1.1 First Saturate with Ligand, Then Dial the Wavelength
Even in the usually tricky situation that a targeted biological effect only occurs when a protein target is partially but not fully stimulated (here: physiology-like contractility as in Fig. 6e, with the overlay of the normal oscillatory frequncy), ideal efficacy switches are still perfectly capable of addressing them robustly. What is possible in the rare case that only fixed operating wavelengths may be available [e.g. in Fig. 6ef, if only 365 nm and 447 nm would be available], would be to use a sub-

T1 sequence (Q9UL62 whole entry): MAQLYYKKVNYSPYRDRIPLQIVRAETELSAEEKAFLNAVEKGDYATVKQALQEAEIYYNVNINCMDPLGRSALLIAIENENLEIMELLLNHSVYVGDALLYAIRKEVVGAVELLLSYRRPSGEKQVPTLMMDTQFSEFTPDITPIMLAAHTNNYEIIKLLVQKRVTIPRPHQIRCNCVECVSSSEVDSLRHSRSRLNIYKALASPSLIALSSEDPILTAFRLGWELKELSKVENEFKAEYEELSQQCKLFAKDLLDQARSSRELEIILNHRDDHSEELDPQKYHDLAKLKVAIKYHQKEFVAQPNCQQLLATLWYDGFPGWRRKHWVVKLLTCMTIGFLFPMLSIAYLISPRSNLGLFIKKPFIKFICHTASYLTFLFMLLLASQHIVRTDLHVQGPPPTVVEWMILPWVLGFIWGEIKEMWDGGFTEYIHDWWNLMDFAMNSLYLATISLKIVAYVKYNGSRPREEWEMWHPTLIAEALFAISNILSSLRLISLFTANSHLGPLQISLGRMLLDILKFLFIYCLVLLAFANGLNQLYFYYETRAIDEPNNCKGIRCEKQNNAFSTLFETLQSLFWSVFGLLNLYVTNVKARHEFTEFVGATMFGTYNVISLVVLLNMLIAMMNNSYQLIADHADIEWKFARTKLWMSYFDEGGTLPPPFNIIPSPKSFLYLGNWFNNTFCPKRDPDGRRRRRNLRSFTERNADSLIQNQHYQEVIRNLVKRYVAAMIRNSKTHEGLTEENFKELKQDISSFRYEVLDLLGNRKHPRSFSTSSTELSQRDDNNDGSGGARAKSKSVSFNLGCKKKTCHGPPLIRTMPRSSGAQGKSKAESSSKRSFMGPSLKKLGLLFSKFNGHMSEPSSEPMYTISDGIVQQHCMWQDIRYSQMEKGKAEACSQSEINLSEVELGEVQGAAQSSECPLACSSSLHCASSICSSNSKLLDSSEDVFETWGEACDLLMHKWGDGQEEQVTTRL
T1 sequence (P48995 whole entry partner): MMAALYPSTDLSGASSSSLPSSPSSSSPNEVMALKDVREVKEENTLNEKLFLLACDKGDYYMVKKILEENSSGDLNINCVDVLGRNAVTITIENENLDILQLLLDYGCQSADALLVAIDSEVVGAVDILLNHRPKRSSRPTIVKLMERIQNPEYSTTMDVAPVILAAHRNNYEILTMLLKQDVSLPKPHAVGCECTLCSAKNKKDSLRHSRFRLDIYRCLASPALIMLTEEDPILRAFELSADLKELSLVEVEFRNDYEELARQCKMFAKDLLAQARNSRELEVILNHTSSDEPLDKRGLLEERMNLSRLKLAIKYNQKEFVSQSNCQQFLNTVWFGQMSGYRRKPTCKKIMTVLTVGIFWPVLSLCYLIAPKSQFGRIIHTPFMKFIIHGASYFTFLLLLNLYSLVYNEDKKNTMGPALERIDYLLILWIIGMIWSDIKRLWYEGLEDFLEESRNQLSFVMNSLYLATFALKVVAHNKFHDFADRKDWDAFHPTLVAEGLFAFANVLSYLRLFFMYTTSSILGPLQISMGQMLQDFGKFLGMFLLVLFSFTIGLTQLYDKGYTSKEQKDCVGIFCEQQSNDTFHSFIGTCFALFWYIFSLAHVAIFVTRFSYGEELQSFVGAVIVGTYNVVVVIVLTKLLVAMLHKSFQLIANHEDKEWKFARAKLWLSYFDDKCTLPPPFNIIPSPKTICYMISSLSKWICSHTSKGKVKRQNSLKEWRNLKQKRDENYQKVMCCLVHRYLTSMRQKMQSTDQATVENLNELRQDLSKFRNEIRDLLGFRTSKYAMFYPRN

Compound	Chromocontrol over heteromeric TRPC5:TRPC1 currents versus homomeric channels [1]	Wavelength range for effective off-photoswitching (channel currents) [2]	Response of segments of TRPC4-deficient mice ([3]; 3 nM, 365/447 nm)	Increase of oscillatory forces under 365 nm ([3]; 3 nM, wild-type segments) [×]	Time to recovery of oscillatory contractions under 447 nm ([3]; 30 nM, after 365 nm rictus-like state) [s]	Effect of 365 nm at moderate to high concentration ([3]; 30 nM, 365 nm)	Photoswitchability after medium replacement ([3]; 300 nM preincubated 2 h, then washed 2 h, 385/470 nm)	Effect of 385 nm at saturating concentration ([3]; 300 nM, 385 nm)	Tonic and oscillatory force photoresponses in TRPC5-deficient mice vs matched control mice ([3]; 365/447 nm)
Cn1c(=O)n(CCCO)c(=O)c2c1nc(Oc1ccc(N=Nc3ccccc3)c(Cl)c1)n2Cc1ccc(Cl)cc1 [AzHC]	comparable chromocontrol	–	–	–	–	–	–	–	–
Cn1c(=O)n(CCCO)c(=O)c2c1nc(Oc1ccc(N=Nc3ccccc3)c(OC(F)(F)F)c1)n2Cc1ccc(Cl)cc1 [AzPico]	comparable chromocontrol	400-480 nm	never responded	1.9	10 to 30	rictus-like intestinal tensioning and rundown	remain perfectly photoreversibly operable	only partial channel activation	indistinguishable
